{
  "source": "patent US10857230B2",
  "about": "“Co-therapy comprising a small molecule CSF-1R inhibitor and an agonistic antibody that specifically binds CD40 for the treatment of cancer” (Janssen Biotech, Inc., priority 2017, dated 2020)",
  "origin": "cited, not measured here",
  "key": {"[1]": {"tested_on": "B cells and dendritic cells", "settings": "cited from earlier work"}, "[2]": {"settings": "patient clinical trials; day of antibody intravenous infusion; cited from earlier work"}},
  "data": [
    {"substance": "CP-870,893: cross-linking independent agonistic CD40 antibody; VH and VL of SEQ ID NOs: 44 and 45, may be IgG2", "values": [
      {"measurement": "potency in activating B cells relative to dendritic cells", "setting": "[1]", "value": "about 20 fold"},
      {"measurement": "most common side effects", "setting": "[2]", "value": "moderate CRS"}
    ]}
  ]
}
